These results are taken from US20250129104A1, “7H-PYRROLO[2,3-D]PYRIMIDINES AND PREPARATION AND USES THEREOF” (BioSplice Therapeutics, Inc., priority 2021, published 2025).

The target of this assay is recombinant DYRK1A kinase (Homo sapiens (Human), UniProt Q13627). Briefly: DYRK1A kinase assay (Ser/Thr 18 peptide Z-lyte FRET assay). It is filed as biochemical. The note with it: DYRK1A kinase activity; 15 μM ATP, 1 h room temperature; method text calls the value IC50. The method, boiled down:
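FRET Z-lyte read-out (coumarin/fluorescein ratio, % phosphorylation) after 1 h development; IC50 from non-linear curve fit. Reaction: 0.25 μg/mL recombinant human DYRK1A, Ser/Thr 18 peptide 4 μM, ATP 15 μM, compound in 11-point 1:3 series from 10 μM, 1 h, room temperature, duplicate wells.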

In the case of `CN(C)C(=O)c1cnn2ccc(-c3c[nH]c4nc(C5CC5)ncc34)cc12` [Compound 1245, 5-(2-Cyclopropyl-7H-pyrrolo[2,3-d]pyrimidin-5-yl)-N,N-dimethylpyrazolo [1,5-a]pyridine-3-carboxamide], the EC50 (usually the concentration at which the effect is half-maximal) is 182 nM. The value for `CN(C(=O)c1cnn2ccc(-c3c[nH]c4nc(C5CC5)ncc34)cc12)C1CC(F)(F)C1` [Compound 1379, 5-(2-Cyclopropyl-7H-pyrrolo[2,3-d]pyrimidin-5-yl)-N-(3,3-difluorocyclobutyl)-N-methylpyrazolo[1,5-a]pyridine-3-carboxamide] was 79.8 nM.

Regarding `O=C(NCC1CC(F)(F)C1)c1cnn2ccc(-c3c[nH]c4nc(C5CC5)ncc34)cc12` [Compound 1422, 5-(2-Cyclopropyl-7H-pyrrolo[2,3-d]pyrimidin-5-yl)-N-((3,3-difluorocyclobutyl)methyl)pyrazolo[1,5-a]pyridine-3-carboxamide], the EC50 came to 6 nM. With `CC(C)Nc1ncc2c(-c3ccn4ncc(C(=O)NCC5CC(F)(F)C5)c4c3)c[nH]c2n1` [Compound 1428, N-((3,3-Difluorocyclobutyl)methyl)-5-(2-(isopropylamino)-7H-pyrrolo[2,3-d]pyrimidin-5-yl)pyrazolo[1,5-a]pyridine-3-carboxamide] the figure was 11.4 nM; with `CO[C@H]1CC[C@H](NC(=O)c2cnn3ccc(-c4c[nH]c5nc(C6CC6)ncc45)cc23)CC1` [Compound 1465, 5-(2-Cyclopropyl-7H-pyrrolo[2,3-d]pyrimidin-5-yl)-N-(trans-4-methoxycyclohexyl)pyrazolo[1,5-a]pyridine-3-carboxamide], 6.7 nM.

With `CN1CCC(NC(=O)c2cnn3ccc(-c4c[nH]c5nc(N)ncc45)cc23)CC1` [Compound 1511, 5-(2-amino-7H-pyrrolo[2,3-d]pyrimidin-5-yl)-N-(1-methylpiperidin-4-yl)pyrazolo[1,5-a]pyridine-3-carboxamide], the EC50 worked out at 3.4 nM. The value for `O=C(NC1CCOCC1)c1cnn2ccc(-c3c[nH]c4nc(C5CC5)ncc34)cc12` [Compound 1551, 5-(2-Cyclopropyl-7H-pyrrolo[2,3-d]pyrimidin-5-yl)-N-(tetrahydro-2H-pyran-4-yl)pyrazolo[1,5-a]pyridine-3-carboxamide] was 7.5 nM.

As to `CC(C)Cc1ncc2c(-c3ccn4nccc4n3)c[nH]c2n1` [Compound 1636, 2-Isobutyl-5-(pyrazolo[1,5-a]pyrimidin-5-yl)-7H-pyrrolo[2,3-d]pyrimidine], the EC50 came out at 214 nM. For the molecule `CC(C)(C)CNc1ncc2c(-c3ccn4nccc4n3)c[nH]c2n1` [Compound 1646, N-Neopentyl-5-(pyrazolo[1,5-a]pyrimidin-5-yl)-7H-pyrrolo[2,3-d]pyrimidin-2-amine], the EC50 was 19.1 nM. With `CC(F)(F)CNc1ncc2c(-c3ccn4nccc4n3)c[nH]c2n1` [Compound 1649, N-(2,2-Difluoropropyl)-5-(pyrazolo[1,5-a]pyrimidin-5-yl)-7H-pyrrolo[2,3-d]pyrimidin-2-amine] the figure was 5.9 nM. With `FC(F)(F)CNc1ncc2c(-c3ccn4nccc4n3)c[nH]c2n1` [Compound 1650, 5-(Pyrazolo[1,5-a]pyrimidin-5-yl)-N-(2,2,2-trifluoroethyl)-7H-pyrrolo[2,3-d]pyrimidin-2-amine] the figure was 19.8 nM; with `C[C@@H](Nc1ncc2c(-c3ccn4nccc4n3)c[nH]c2n1)C(F)(F)F` [Compound 1651, (R)-5-(Pyrazolo[1,5-a]pyrimidin-5-yl)-N-(1,1,1-trifluoropropan-2-yl)-7H-pyrrolo[2,3-d]pyrimidin-2-amine], 13.2 nM; with `C[C@H](Nc1ncc2c(-c3ccn4nccc4n3)c[nH]c2n1)C(F)(F)F` [Compound 1652, (S)-5-(Pyrazolo[1,5-a]pyrimidin-5-yl)-N-(1,1,1-trifluoropropan-2-yl)-7H-pyrrolo[2,3-d]pyrimidin-2-amine], 103 nM. The value for `FC1(F)CCC(Nc2ncc3c(-c4ccn5nccc5n4)c[nH]c3n2)CC1` [Compound 1663, N-(4,4-Difluorocyclohexyl)-5-(pyrazolo[1,5-a]pyrimidin-5-yl)-7H-pyrrolo [2,3-d]pyrimidin-2-amine] was 9.2 nM. With `CN1CCC(Nc2ncc3c(-c4ccn5nccc5n4)c[nH]c3n2)CC1` [Compound 1667, N-(1-Methylpiperidin-4-yl)-5-(pyrazolo[1,5-a]pyrimidin-5-yl)-7H-pyrrolo [2,3-d]pyrimidin-2-amine], the EC50 came out at 19 nM. The value for `c1cc2nc(-c3c[nH]c4nc(NC5CCOCC5)ncc34)ccn2n1` [Compound 1669, 5-(Pyrazolo[1,5-a]pyrimidin-5-yl)-N-(tetrahydro-2H-pyran-4-yl)-7H-pyrrolo [2,3-d]pyrimidin-2-amine] was 6.1 nM; that for `CC(C)(F)CNc1ncc2c(-c3ccn4ncc(F)c4n3)c[nH]c2n1` [Compound 1678, N-(2-Fluoro-2-methylpropyl)-5-(3-fluoropyrazolo[1,5-a]pyrimidin-5-yl)-7H-pyrrolo[2,3-d]pyrimidin-2-amine] was 21.1 nM; that for `C[C@@H](Nc1ncc2c(-c3ccn4ncc(F)c4n3)c[nH]c2n1)C(F)(F)F` [Compound 1679, (R)-5-(3-Fluoropyrazolo[1,5-a]pyrimidin-5-yl)-N-(1,1,1-trifluoropropan-2-yl)-7H-pyrrolo[2,3-d]pyrimidin-2-amine] was 92.9 nM. With `C[C@@H](Nc1ncc2c(-c3ccn4ncc(Cl)c4n3)c[nH]c2n1)C(F)(F)F` [Compound 1681, (R)-5-(3-Chloropyrazolo[1,5-a]pyrimidin-5-yl)-N-(1,1,1-trifluoropropan-2-yl)-7H-pyrrolo[2,3-d]pyrimidin-2-amine] the figure was 98.8 nM. With `CC(C)(F)CNc1ncc2c(-c3ccn4ncc(C5CC5)c4n3)c[nH]c2n1` [Compound 1695, 5-(3-Cyclopropylpyrazolo[1,5-a]pyrimidin-5-yl)-N-(2-fluoro-2-methylpropyl)-7H-pyrrolo[2,3-d]pyrimidin-2-amine] the figure was 5.1 nM; with `CN1CCC(CNc2ncc3c(-c4ccc5c(c4)OCCNC5=O)c[nH]c3n2)CC1` [Compound 1758, 8-(2-(((1-Methylpiperidin-4-yl)methyl)amino)-7H-pyrrolo[2,3-d]pyrimidin-5-yl)-3,4-dihydrobenzo[f][1,4]oxazepin-5(2H)-one], 7.3 nM; with `CN1CCN(c2cc(Nc3ncc4c(-c5ccc6c(c5)CCCO6)c[nH]c4n3)ccn2)CC1` [Compound 1768, 5-(Chroman-6-yl)-N-(2-(4-methylpiperazin-1-yl)pyridin-4-yl)-7H-pyrrolo [2,3-d]pyrimidin-2-amine], 34.8 nM. Consider `CN1CCC(Nc2ncc3c(-c4ccc5c(c4)OC(C)(C)CC5=O)c[nH]c3n2)CC1` [Compound 1801, 2,2-Dimethyl-7-(2-((1-methylpiperidin-4-yl)amino)-7H-pyrrolo[2,3-d]pyrimidin-5-yl)chroman-4-one], for which the EC50 came out at 66.9 nM. With `COc1nc(CC(C)C)nc2[nH]cc(-c3ccc4ncccc4c3)c12` [Compound 1857, 6-(2-Isobutyl-4-methoxy-7H-pyrrolo[2,3-d]pyrimidin-5-yl)quinoline] the figure was 42.7 nM; with `Nc1ncc2c(-c3ccc4ncccc4c3)c[nH]c2n1` [Compound 1862, 5-(Quinolin-6-yl)-7H-pyrrolo[2,3-d]pyrimidin-2-amine], 2.9 nM; with `CNc1ncc2c(-c3ccc4ncccc4c3)c[nH]c2n1` [Compound 1863, N-Methyl-5-(quinolin-6-yl)-7H-pyrrolo[2,3-d]pyrimidin-2-amine], 2.9 nM. The value for `CC(C)(C)CNc1ncc2c(-c3ccc4ncccc4c3)c[nH]c2n1` [Compound 1867, N-Neopentyl-5-(quinolin-6-yl)-7H-pyrrolo[2,3-d]pyrimidin-2-amine] was 69.7 nM; that for `CC(C)(F)CNc1ncc2c(-c3ccc4ncccc4c3)c[nH]c2n1` [Compound 1869, N-(2-Fluoro-2-methylpropyl)-5-(quinolin-6-yl)-7H-pyrrolo[2,3-d]pyrimidin-2-amine] was 4 nM.

Consider `c1cnc2ccc(-c3c[nH]c4nc(NC5CCOCC5)ncc34)cc2c1` [Compound 1890, 5-(Quinolin-6-yl)-N-(tetrahydro-2H-pyran-4-yl)-7H-pyrrolo[2,3-d]pyrimidin-2-amine], for which the EC50 stood at 6 nM. The value for `CN1CCN(c2cccc(Nc3ncc4c(-c5ccc6ncccc6c5)c[nH]c4n3)c2)CC1` [Compound 1891, N-(3-(4-Methylpiperazin-1-yl)phenyl)-5-(quinolin-6-yl)-7H-pyrrolo[2,3-d]pyrimidin-2-amine] was 4.1 nM; that for `c1cnc2ccc(-c3c[nH]c4nc(Nc5ccncc5)ncc34)cc2c1` [Compound 1892, N-(pyridin-4-yl)-5-(quinolin-6-yl)-7H-pyrrolo[2,3-d]pyrimidin-2-amine] was 0.8 nM; that for `CN1CCN(c2cc(Nc3ncc4c(-c5ccc6ncccc6c5)c[nH]c4n3)ccn2)CC1` [Compound 1893, N-(2-(4-Methylpiperazin-1-yl)pyridin-4-yl)-5-(quinolin-6-yl)-7H-pyrrolo [2,3-d]pyrimidin-2-amine] was 0.5 nM. For the molecule `CN1CCN(c2ccc(Nc3ncc4c(-c5ccc6ncccc6c5)c[nH]c4n3)cn2)CC1` [Compound 1894, N-(6-(4-Methylpiperazin-1-yl)pyridin-3-yl)-5-(quinolin-6-yl)-7H-pyrrolo [2,3-d]pyrimidin-2-amine], the EC50 was determined as 2.3 nM.

For `CN1CCN(c2ccc(CNc3ncc4c(-c5ccc6ncccc6c5)c[nH]c4n3)cn2)CC1` [Compound 1895, N-((6-(4-Methylpiperazin-1-yl)pyridin-3-yl)methyl)-5-(quinolin-6-yl)-7H-pyrrolo[2,3-d]pyrimidin-2-amine], the EC50 amounted to 3.6 nM. With `c1cnc2ccc(-c3ncc4c(-c5ccc6ncccc6c5)c[nH]c4n3)cc2c1` [Compound 1896, 6,6′-(7H-pyrrolo[2,3-d]pyrimidine-2,5-diyl)diquinoline] the figure was 15.6 nM.
